From patent US6770673B1, “Therapeutic uses of arglabin in combination with other chemotherapy agents” (priority 1997, dated 2004)
Marks after values point to notes of the source that are not given here.

Experiments:
immune system [1] = assay: Immunological indices in August rats with Pliss lymphosarcoma; format: in vivo; conditions: Increased; about 50 mg/kg IP daily for 10 days
Text: (§1) Additional immunological data were obtained from an “August” line of rats, weighing 140-160 g, with and without Pliss lymphosarcoma. […] Results are summarized in Table V. Overall, lyophilized-dimethylaminoarglabin hydrochloride stimulated delayed type hypersensitivity, but reduced all other studied indices in intact rats. In rats with Pliss Lymphosarcoma, the immune system was stimulated, as all studied indices increased.

[2] = tested on: Alveolar Cancer of the liver; assay: Inhibition of tumor growth in implanted tumors; format: in vivo, mice and rats; conditions: dose 50 mg/kg
K-562 cells = assay: Viability of transformed cells, trypan blue exclusion; format: cell-based, human; conditions: 12 μg/ml, 18 hours
Method: (§2) Mouse mastocytoma (P-815), myeloma (Z-P3x63Ag8.653 and Pai) and human erthyroleukemia (K-562) cell lines were used. Primary cultures of normal mouse hepatocytes were isolated from mouse liver using collagenase. Mouse splenocytes were isolated using a glass homogenizer. Marrow cells were obtained by washing the bone marrow. See, for example, Shears, S. B. and Kirk, C. J. (1984), Biochem. J. 219:375-382.
(§3) Cells were cultured in RPMI-1640 medium supplemented with 10% fetal calf serum, 100 mM L-glutamine and 50 μg/ml gentamycin at 37° C. under 5% CO2. Cells were seeded into 24-well plates at a density of 50,000 cells/well and grown until near confluency, approximately 2 days, then transferred to 96-well plates at the same density. […] Viability of the cells was determined by trypan blue exclusion. […] Approximately 25% of K-562 and X-653 cells survived at a concentration of 12 μg/ml, and the same proportion of P-815 cells survived at a concentration of about 25 μg/ml.

marrow cells = assay: Viability of primary cultures of normal cells, trypan blue exclusion; format: cell-based, mouse; conditions: 18 hours
Method: as §2, §3
(§4) Viability was measured by trypan blue exclusion. […] At a concentration of 320 μg/ml, the number of viable splenocytes was reduced by 50% in comparison to the control. At concentrations of 640 μg/ml and 1280 μg/ml, 40% and 10%, respectively, of the splenocytes were still viable. At these same concentrations, approximately 50% and 25% of hepatocytes were still viable. Marrow cells were more sensitive to dimethylaminoarglabin hydrochloride. At a concentration of 160 μg/ml, only about 50% of the marrow cells were still viable. Increasing the concentration to 320 μg/ml reduced the viability to about 25%.

splenocytes = assay: as above; format: cell-based, mouse; conditions: 18 hours
Method: as §2, §3, §4

hepatocytes = assay: as above; format: cell-based, mouse; conditions: 18 hours
Method: as §2, §3, §4

immune system [3] = assay: Immune system modulation in intact mice; format: in vivo
Method: In intact mice, injection of 10 mg/kg increased the total number of leukocytes through an increase in the absolute number of lymphocytes. […] The nitroblue tetrazolium assay was used to assess the function of the neutrophils. […] With a higher dosage, 20 mg/kg, a decrease in nitroblue tetrazolium positive neutrophils was seen, indicating a decrease in function.
The level of the T-suppressor subpopulation was not altered. At a higher dosage (20 mg/kg), overall leukocyte number was not altered, even though B-lymphocyte number decreased and T-lymphocyte decreased to a lesser extent. Natural killer cell number was increased.
The increase in T-lymphocytes was accompanied by an increase in the level of the T-helper subpopulation of T-lymphocytes.

Solubility in water = format: physicochemical
Geren's carcinosarcoma = assay: Inhibition of tumor growth in implanted tumors; format: in vivo, mice and rats
immune system [4] = assay: Immunological indices in intact August rats; format: in vivo; conditions: about 50 mg/kg IP daily for 10 days
Text: as §1

[5] = tested on: farnesylation of proteins; assay: Protein prenylation in myeloma Pai cells, naphthol cleavage and HPLC; format: cell-based, mouse; conditions: 60 μM, FIG. 8B
Method: The cells were collected by centrifugation at 600×g for 10 minutes and then washed twice in PBS. Control cells were grown in the absence of drug. The cells were solubilized in lysis buffer (50 mM Tris, pH 7.4, 25 mM EDTA, 0.05% Tween, 0.01 M NaCl) for 30 minutes on ice. Lysates were made by homogenization for 5 minutes at 4° C. and precipitated by centrifugation at 12,000×g for 10 minutes. The supernatant was collected. Proteins were precipitated with trichloroacetic acid and then successively washed with ethanol and ethyl ether. A selective naphthol cleavage of the bond between isoprenoides and proteins was performed as described by Epstein, W. W et al., (1991) Proc. Natl. Acad. Sci. USA 88:9668-9670. In general, 5 mg of a potassium naphthoxide and naphthol 4:1 mixture was added to approximately 10 mg of precipitated protein. After addition of 50 μl of dimethylformamide, the tubes were gassed with argon, capped and heated to 100° C. for eight to 15 hours. Reaction products were extracted with hexane and analyzed by HPLC (Waters System) using a 0.4×15 cm reverse-phase Nova-Pac C18 column. The column was eluted with 20% water in acetonitrile at a flow of 1.0 ml/minute. Napthol cleavage products were detected at 360 nm (FIG. 8) with a full-scale deflection of 0.01 A unit. […]

L-1210 = assay: Implanted leukemia, survival; format: in vivo, mice and rats; conditions: dose 30 mg/kg
[6] = tested on: Sarcoma-45 resistant to sarcolysin; assay: Inhibition of growth of resistant tumour strains; format: in vivo, rats; conditions: dose 50 mg/kg
[7] = Toxicity and maximum tolerable doses of arglabin and derivatives; format: in vivo, rats, guinea pigs, mice, rabbits; conditions: 2% aqueous solution, blood serum and hepatic tissue
Text: Overall, the compounds in this family have low toxicity and are tolerated at dosages exceeding the therapeutic dosage.
Blood pressure was maintained.

immune system [8] = assay: Immunity of rats with initial and prospidin resistant tumors with metastases; format: in vivo; conditions: sarcolysin, cisplatin
M-1 Sarcoma = assay: Inhibition of tumor growth in implanted tumors; format: in vivo, mice and rats; conditions: dose 30 mg/kg
[9] = tested on: Sarcoma-45 resistant to prospidine; assay: Inhibition of growth of resistant tumour strains; format: in vivo, rats; conditions: dose 50 mg/kg

CC1=CCC23OC2(C)CCC2C(CN(C)C)C(=O)OC2C13.Cl (stereo not drawn) [Dimethylaminoarglabin hydrochloride]
Delayed type hypersensitivity, Rats with Pliss Lymphosarcoma After Treatment (immune system [1]): 89.9-132.2%
Hemagglutination (RHG), Rats with Pliss Lymphosarcoma After Treatment (immune system [1]): 82.2-142.6%
Nitroblue tetrazolium (NBT), Rats with Pliss Lymphosarcoma After Treatment (immune system [1]): 79.2-175.4%
Spontaneous-erythrocyte rosette forming (E-ROK), Rats with Pliss Lymphosarcoma After Treatment (immune system [1]): 94.8-162.5%
Inhibition of Tumour Growth, % - Alveolar Cancer of the liver [2]: 80.0%
cells survived (K-562 cells): Approximately 25%
marrow cells still viable (marrow cells; 160 μg/ml): approximately 50%
marrow cells viability (marrow cells; 320 μg/ml): about 25%
number of viable splenocytes reduced in comparison to the control (splenocytes; 320 μg/ml): 50%
splenocytes still viable (splenocytes; 640 μg/ml): 40%
splenocytes still viable (splenocytes; 1280 μg/ml): 10%
hepatocytes still viable (hepatocytes; 640 μg/ml): approximately 50%
hepatocytes still viable (hepatocytes; 1280 μg/ml): about 25%
total number of leukocytes (immune system [3]; 10 mg/kg): increased
B-lymphocytes (immune system [3]; 10 mg/kg daily IP for 10 days): remained stable
overall leukocyte count (immune system [3]; 10 mg/kg daily IP for 10 days): increased
leukocyte number (immune system [3]; 20 mg/kg): did not result in an overall increase
nitroblue tetrazolium positive neutrophils (immune system [3]; 20 mg/kg): decrease
natural killer cell number (immune system [3]; 20 mg/kg daily IP for 10 days): increased
solubility in water (Solubility in water): soluble in water
Inhibition of Tumour Growth, % - Geren's carcinosarcoma (Geren's carcinosarcoma; dose 30 mg/kg): 80.1%
Inhibition of Tumour Growth, % - Geren's carcinosarcoma (Geren's carcinosarcoma; dose 50 mg/kg): 83.3* %
Hemagglutination (RHG), Intact Rats After Treatment (immune system [4]; Decreased): 43-53%
Nitroblue tetrazolium (NBT), Intact Rats After Treatment (immune system [4]; Decreased): 67-91%
Spontaneous-erythrocyte rosette forming (E-ROK), Intact Rats After Treatment (immune system [4]; Decreased): 64-84%
Delayed type hypersensitivity, Intact Rats After Treatment (immune system [4]; Increased): 153-207%
peak corresponding to the farnesylcysteine derivative [5]: does not appear on the chromatogram
L-1210 - increase in survival (L-1210): +60%
Inhibition of Tumour Strains Growth, % - Resistant Forms - Sarcoma-45 to sarcolysin [6]: 90.1*** %
findings after prolonged daily intraperitoneal administration [7]: Reversible changes in glycolysis and tissue respiration
effect on immunodepression caused by cytostatics (immune system [8]): softened the immunodepressive effect of cytostatics
Inhibition of Tumour Growth, % - M-1 Sarcoma (M-1 Sarcoma): 83.5** %
Inhibition of Tumour Strains Growth, % - Resistant Forms - Sarcoma-45 to prospidine [9]: 87.4*** %
